What was measured:
[1] = test system: skin model (reconstructed human epidermis) damaged with SDS; assay: LDH release after damaging the cells with SDS, O/W cream; assay type: cell-based
Description: (§1) In order to be able to characterize the skin care properties of the compounds 2.1 to 2.8, various in vitro tests were carried out on skin models (reconstructed human epidermis, company: SkinEthic).
The LDH concentration was determined with a commercially available test kit (LDH test kit, Roche Diagnostics, Mannheim, Germany).
Sodium dodecyl sulphate (SDS) is known for attacking the cell membrane and for resulting in increased LDH release. The experiment described below should investigate to what extent compound 2.1 can protect the cells after damaging with SDS.
The skin model was damaged with SDS for 40 min. Subsequently, the test formulation, an O/W cream with 1 or 4% of compound 2.1, was applied. The LDH release was measured 24 h and 48 h after application of the test formulation.

IL-1α = assay: Anti-inflammatory action of an O/W cream with compound 2.1 (IL-1α after SDS damage); assay type: cell-based, human; settings: O/W cream with 1% and 4% of compound 2.1 applied after SDS damage
Description: as §1
IL-1α is a […] which plays a central role in inflammatory reactions in the body. Sodium lauryl sulphate (SDS) is a skin-irritating surfactant which can give rise to irritant contact dermatitis in man, is used as model irritant in proband studies and, inter alia, induces the release of IL-1α. The IL-1α concentration was determined with a commercially available test kit (human IL-1α immunoassay, R&D Systems GmbH, Wiesbaden, Germany).
It should be investigated whether the anti-inflammatory effect of the short-chain zwitterionic compounds also appears when used from a cosmetic formulation. For this, skin models were damaged with SDS. Subsequently, the test formulation with 1% and 4% of compound 2.1 was applied. The IL-1α concentration was determined 24 and 48 h after application.

[2] = test system: skin model (reconstructed human epidermis) damaged with SDS; assay: XTT test with an O/W cream with compound 2.1 after SDS damage; assay type: cell-based; settings: O/W cream with compound 2.1 applied after 0.25% SDS for 40 min; 24 h incubation
Description: as §1
The XTT test is based on the ability of the cells to reduce the dye XTT, which can be detected photometrically. This reaction is catalyzed by mitochondrial succinate dehydrogenase and requires NAD(P)H, which can only be formed by metabolically active cells. To sum up, the XTT test describes the viability of the cells.
The XTT test was carried out with a commercially available test kit and took place according to the manufacturer's instructions (XTT Test, Roche Diagnostics, Mannheim, Germany).
The skin model was first damaged with 0.25% SDS for 40 min. Subsequently, the test formulations were applied. After incubating for a time of 24 h, the viability of the cells was determined using the XTT test.
Test formulation: see Example 3.2.

[3] = Water retention capacity on an IMS film; settings: 5.0% in test formulation 3.7; 4 hours at 21-22° C. and 72% R.H.; in comparison with the vehicle
Source text: The determination of the water retention capacity of active substances using the IMS film represents a simple screening test by which the moisturizing properties of active substances can be very satisfactorily investigated. The measurement is based on the following principle: The IMS film is a membrane which is covered with peptides, lipids and polymers and represents a greatly simplified skin model. The active substance interacts out of the formulation with the film. Combining with water takes place and thus the evaporation of the water is prevented or made more difficult.
Implementation: • 1. The weight of the IMS membrane is determined (W1). • 2. The test formulation is applied, the film is again weighed (W2) and the film is subsequently incubated at 21-22° C. and 72% R.H. for 4 hours. • 3. After the 4 hours have passed, the film is again weighed (W3). • 4. The water retention capacity of the formulation (WR) is calculated as follows: […]

[4] = test system: skin moisture (stratum corneum), forearms of probands; assay: In vivo moisturizer properties, corneometer, 2 hours after application; set-up: species or system human
Description: The skin moisture is determined in normal fashion using a corneometer.
With the corneometer principle, the skin moisture of the “outer layer” of the epidermis (stratum corneum) is determined by means of a capacity measurement. This principle is based on the fact that the dielectric constants of water and other substances differ. An appropriately shaped measuring capacitor reacts with different changes in capacity on the samples introduced into its sensing volume, which changes in capacity are recorded and evaluated fully automatically by the device. The active probe coated with special glass is pressed against the place on the skin to be measured and, after 1 second, the value measured by the corneometer, thus the degree of moisture on the skin surface, appears on the display
For the experiments described here, use is made of a corneometer CM 825 from Courage & Khazaka. The skin moisture was measured before and 2 hours after application of the test formulations. For this, 4 test panels were each time highlighted on the forearms of 14 probands, on which the different test formulations were applied. Before each measurement, the probands had to spend at least 15 min in a climate-controlled chamber (21-22° C., 55% R.H.).
The difference in the corneometer values before and after application of the test formulations was calculated. […]

[5] = test system: skin moisture, inner side of a forearm of probands; assay: Long-term moisturizing effect, corneometer, two-week study; assay type: in vivo, human; settings: 2% in test formulation 3.9, twice daily for 2 weeks; compared with vehicle; 12 probands
Description: In order to investigate the long-term effect of the moisturizing properties of compound 2.1, a study lasting two weeks was carried out with 12 probands. The probands received 2 formulations, one with 2% of compound 2.1 and one without active substance. They had to apply each of these formulations on the inner side of a forearm twice daily. The moisture content was measured before beginning to use and also after 2 weeks.
The moisture content was determined using a corneometer CM 825 (Courage & Khazaka). Before each measurement, the probands had to stay in a climate-controlled chamber (21-22° C., 55% R.H.) for at least 15 min. The difference in the corneometer units with respect to the starting value was calculated each time (ΔCU).

[6] = test system: skin roughness, inner side of a forearm of probands; assay: Skin roughness by tape stripping and Bradford test; assay type: in vivo, human; settings: 2% formulation twice daily
Source text: The skin roughness can be quantified in a simple way by means of tape stripping. The rougher the skin surface, e.g. because the skin lipid barrier is damaged, the weaker the binding of the skin cells. In some cases, with very rough skin, this can be seen with the naked eye. The outermost corneocytes are removed by tape stripping. In this connection, the more corneocytes stuck to the tape, the rougher the skin. The corneocytes are subsequently determined quantitatively using a commercially available Bradford test. This is based on the following principle: the triphenylmethane dye Coomassie Brilliant Blue G-250 (CBBG) forms complexes in acid solution both with the cationic and the nonpolar hydrophobic side chains of the proteins. […] Since the extinction coefficient of the dye/protein complex is in addition very much higher than that of the free dye, the increase in the absorption at 595 nm through the formation of the complex can be measured photometrically with high sensitivity against the free dye reagent and is a measure of the protein concentration of the solution.
The study was carried out with 12 probands who received two test formulations, one with 2% compound 2.1 and one without. […] Tape strips were taken and analyzed before the beginning of the application and also after 2 weeks and after 4 weeks. […]

## C[N+](C)(CCCNC=O)CC(=O)[O-] [Compound 2.1]
[1]; O/W cream with 4% vs 1% of compound 2.1 after SDS damage
  Effectiveness on LDH release with 4% compared with 1%: no clear increase in the effectiveness
[1]; O/W cream with compound 2.1 applied after 40 min SDS damage, compared with vehicle
  Reduction of the SDS-induced increase in LDH release (total LDH after 24 and 48 h): clearly intensified
IL-1α
  SDS-induced increase in IL-1α (overall concentration after 24 and 48 h): more strongly reduced in a concentration-dependent fashion
[2]
  Viability of the skin cells (XTT) after damaging with SDS: more than redoubled
[3]
  Water retention capacity (WR): particularly strongly pronounced
[4]; 1.0% vs 4.0% in test formulation 3.8
  Effectiveness on skin moisture with increasing concentration of use: clearly increased with increasing concentration of use
[4]; 1.0/4.0% in test formulation 3.8, 14 probands
  Skin moisture, increase in corneometer units (ΔCU): very clearly increased
[5]
  Moisture content (ΔCU) after 2 weeks: further enhanced
[6]; after using for two weeks, compared with the vehicle
  Skin roughness (amount of protein on tape strips, based on the vehicle), two weeks: clear reduction
[6]; further use (after 4 weeks)
  Skin roughness (amount of protein on tape strips, based on the vehicle), further use: even more pronounced

Source: patent US20110206623A1, “NOVEL DIPOLAR IONIC COMPOUNDS COMPRISING FORMULATIONS AND THE USE THEREOF” (EVONIK GOLDSCHMIDT GMBH, priority 2007, published 2011)
